{
  "source": "patent US7141553B2",
  "about": "“A3AR agonists for the treatment of inflammatory arthritis” (Can-Fite Biopharma Ltd. Israel, priority 2002, dated 2006)",
  "key": {"[1]": {"test": "Repeat dose study in healthy men, plasma pharmacokinetics", "type": "in vivo, human", "conditions": "for Cmax: n=5", "description": "In the single dose study, 15 healthy men (3 groups of 5) received a single oral dose of IB-MECA (1, 5 or 10 mg) or placebo. In each group, 1 subject received placebo. In the repeated dose study, 28 healthy men (4 groups of 7) received repeated oral doses of IB-MECA (2, 3, 4 or 5 mg) or placebo every 12 h for 7 days. In each group, 2 subjects received placebo.\nIn the single dose study, a solution with IB-MECA powder in 30% Cremophor RH40 (BASF) was used. In the repeated dose study, an aqueous 0.5% methylcellulose suspension (Methocel A4M Premium, The Dow Chemical Company) was used. In both studies, the study medication was taken orally as a drink, followed by 50 ml of tap water.\nThe following procedures were done: • Safety assesment: laboratory assessments (routine biochemistry and urinalysis), physical examination, 12-lead ECG, ambulatory ECG, pulmonary function testing (FEV1), vital signs (semi-recumbent in the single dose study; semi-recumbent and standing in the repeat dose study). Adverse events were recorded throughout both studies. • Determination of IB-MECA blood level: in the single dose study blood samples for assay of IB-MECA were taken immediately before and at 0.25, 0.5, 1, 2, 4, 8, 12, 24, and 48 h after dosing; in the repeat dose study—blood samples were taken immediately before and at 0.25, 0.5, 1, 2, 4, 8, and 12 h after dosing on Day 1, before dosing on Days 2–6, and before and at 0.25, 0.5, 1, 2, 4, 8, 12, and 24 h after dosing on Day 7.\nPlasma samples were assayed for IB-MECA using LC/MS/MS. The lower limit of quantification (LLOQ) was 0.1 ng/mL. Intra-assay coefficients of variation (CV) were <5.0% and inter-assay CVs were <9.4%.\nMaximum concentration (Cmax) and time to maximum concentration (tmax) were observed values. Other pharmacokinetic parameters (half-life, t^1/2; AUC; and clearance, CL/F) were calculated by non-compartmental methods using WinNonlin® software (version 3.0, Pharsight, Mountain View, Calif., US). Accumulation indices of Cmax and AUC were calculated as ratio of values at steady state (Day 7) to the values on Day 1."}, "[2]": {"system": "macrophages", "conditions": "dose dependent; cited from earlier work"}, "[3]": {"conditions": "2 mg every 12 h, Day 1, mean (SD)"}, "[4]": {"conditions": "2 mg every 12 h, Day 7, mean (SD)"}, "[5]": {"conditions": "3 mg every 12 h, Day 1, mean (SD)"}, "[6]": {"conditions": "3 mg every 12 h, Day 7, mean (SD)"}, "[7]": {"conditions": "4 mg every 12 h, Day 1, mean (SD)"}, "[8]": {"conditions": "4 mg every 12 h, Day 7, mean (SD)"}, "[9]": {"conditions": "5 mg every 12 h, Day 1, mean (SD)"}, "[10]": {"conditions": "5 mg every 12 h, Day 7, mean (SD)"}, "[11]": {"conditions": "repeated doses, independent of dose"}},
  "data": [
    {"smiles": "CNC(=O)[C@H]1O[C@@H](n2cnc3c(NCc4cccc(I)c4)ncnc32)[C@H](O)[C@@H]1O", "note": "[IB-MECA, N6-(3-iodobenzyl)-adenosine-5′-N-methyl-uronamide]", "values": [
      {"measurement": "AUC (AUC(inf) on Day 1)", "setting": "[1]; [3]", "value": "207.4 (52.0) ng · h/mL"},
      {"measurement": "AUC(0–12)", "setting": "[1]; [3]", "value": "155.2 (39.1) ng · h/mL"},
      {"measurement": "CL/F", "setting": "[1]; [3]", "value": "10.1 (2.3) L/h"},
      {"measurement": "t1/2", "setting": "[1]; [3]", "value": "5.52 (0.2) h"},
      {"measurement": "Cmax", "setting": "[1]; [3]", "value": "22.0 (3.3) ng/mL"},
      {"measurement": "tmax", "setting": "[1]; 2 mg every 12 h, Day 1, median (range)", "value": "2 (1–4) h"},
      {"measurement": "AUC (AUC(0–24) on Day 7)", "setting": "[1]; [4]", "value": "346.3 (64.0) ng · h/mL"},
      {"measurement": "AUC(0–12)", "setting": "[1]; [4]", "value": "242.4 (41.4) ng · h/mL"},
      {"measurement": "CL/F", "setting": "[1]; [4]", "value": "4.9 (0.7) L/h"},
      {"measurement": "t1/2", "setting": "[1]; [4]", "value": "9.83 (1.2) h"},
      {"measurement": "Cmax", "setting": "[1]; [4]", "value": "30.9 (3.1) ng/mL"},
      {"measurement": "tmax", "setting": "[1]; 2 mg every 12 h, Day 7, median (range)", "value": "2 (1–2) h"},
      {"measurement": "AUC (AUC(inf) on Day 1)", "setting": "[1]; [5]", "value": "423.5 (27.5) ng · h/mL"},
      {"measurement": "AUC(0–12)", "setting": "[1]; [5]", "value": "304.5 (19.5) ng · h/mL"},
      {"measurement": "CL/F", "setting": "[1]; [5]", "value": "7.1 (0.5) L/h"},
      {"measurement": "t1/2", "setting": "[1]; [5]", "value": "6.29 (1.0) h"},
      {"measurement": "Cmax", "setting": "[1]; [5]", "value": "49.3 (9.7) ng/mL"},
      {"measurement": "tmax", "setting": "[1]; 3 mg every 12 h, Day 1, median (range)", "value": "2 (1–2) h"},
      {"measurement": "AUC (AUC(0–24) on Day 7)", "setting": "[1]; [6]", "value": "512.1 (74.1) ng · h/mL"},
      {"measurement": "AUC(0–12)", "setting": "[1]; [6]", "value": "341.6 (38.1) ng · h/mL"},
      {"measurement": "CL/F", "setting": "[1]; [6]", "value": "5.0 (0.6) L/h"},
      {"measurement": "t1/2", "setting": "[1]; [6]", "value": "9.25 (0.8) h"},
      {"measurement": "Cmax", "setting": "[1]; [6]", "value": "49.0 (7.9) ng/mL"},
      {"measurement": "tmax", "setting": "[1]; 3 mg every 12 h, Day 7, median (range)", "value": "1 (1–2) h"},
      {"measurement": "AUC (AUC(inf) on Day 1)", "setting": "[1]; [7]", "value": "400.2 (85.7) ng · h/mL"},
      {"measurement": "AUC(0–12)", "setting": "[1]; [7]", "value": "297.0 (57.2) ng · h/mL"},
      {"measurement": "CL/F", "setting": "[1]; [7]", "value": "10.4 (2.1) L/h"},
      {"measurement": "t1/2", "setting": "[1]; [7]", "value": "5.77 (0.6) h"},
      {"measurement": "Cmax", "setting": "[1]; [7]", "value": "46.2 (11.4) ng/mL"},
      {"measurement": "tmax", "setting": "[1]; 4 mg every 12 h, Day 1, median (range)", "value": "2 (1–2) h"},
      {"measurement": "AUC (AUC(0–24) on Day 7)", "setting": "[1]; [8]", "value": "640.3 (73.7) ng · h/mL"},
      {"measurement": "AUC(0–12)", "setting": "[1]; [8]", "value": "458.3 (54.8) ng · h/mL"},
      {"measurement": "CL/F", "setting": "[1]; [8]", "value": "5.4 (0.7) L/h"},
      {"measurement": "t1/2", "setting": "[1]; [8]", "value": "8.93 (0.8) h"},
      {"measurement": "Cmax", "setting": "[1]; [8]", "value": "58.1 (10.4) ng/mL"},
      {"measurement": "tmax", "setting": "[1]; 4 mg every 12 h, Day 7, median (range)", "value": "1 (1–2) h"},
      {"measurement": "AUC (AUC(inf) on Day 1)", "setting": "[1]; [9]", "value": "596.1 (196.6) ng · h/mL"},
      {"measurement": "AUC(0–12)", "setting": "[1]; [9]", "value": "461.6 (157.4) ng · h/mL"},
      {"measurement": "CL/F", "setting": "[1]; [9]", "value": "9.3 (3.5) L/h"},
      {"measurement": "t1/2", "setting": "[1]; [9]", "value": "4.96 (0.3) h"},
      {"measurement": "Cmax", "setting": "[1]; [9]", "value": "63.6 (22.0) ng/mL"},
      {"measurement": "tmax", "setting": "[1]; 5 mg every 12 h, Day 1, median (range)", "value": "2 (1–2) h"},
      {"measurement": "AUC (AUC(0–24) on Day 7)", "setting": "[1]; [10]", "value": "818.4 (214.0) ng · h/mL"},
      {"measurement": "AUC(0–12)", "setting": "[1]; [10]", "value": "601.0 (163.6) ng · h/mL"},
      {"measurement": "CL/F", "setting": "[1]; [10]", "value": "5.4 (1.5) L/h"},
      {"measurement": "t1/2", "setting": "[1]; [10]", "value": "9.39 (0.6) h"},
      {"measurement": "Cmax", "setting": "[1]; [10]", "value": "79.5 (24.1) ng/mL"},
      {"measurement": "tmax", "setting": "[1]; 5 mg every 12 h, Day 7, median (range)", "value": "2 (2–2) h"},
      {"measurement": "accumulation index for AUC", "setting": "[1]; ratio Day 7 to Day 1", "value": "1.1–1.6"},
      {"measurement": "accumulation index for Cmax", "setting": "[1]; ratio Day 7 to Day 1", "value": "1–1.4"},
      {"measurement": "tmax", "setting": "[1]; repeated doses 2-5 mg every 12 h", "value": "1 to 2", "unit": "h"},
      {"measurement": "steady state reached by", "setting": "[1]; repeated doses every 12 h", "value": "≤ 3", "unit": "days"},
      {"measurement": "apparent plasma clearance (CL/F)", "setting": "[1]; [11]", "value": "5 to 10", "unit": "L/h"},
      {"measurement": "half-life at steady state", "setting": "[1]; [11]", "value": "9 to 10", "unit": "h"},
      {"measurement": "production of MIP-1α in macrophages", "setting": "[2]", "value": "suppresses the production of MIP-1α"},
      {"measurement": "production of the cytokines IL-1, IL-2, IL-6 as well as NO", "setting": "[2]", "value": "inhibit, also in a dose dependent manner"}
    ]}
  ]
}
